These compounds were tested against T1, Phosphatidylinositol 4,5-bisphosphate 3-kinase catalytic subunit delta isoform (Homo sapiens, UniProt O00329) (assay: Inhibition of PI3Kdelta (unknown origin)).
T1 sequence (O00329 whole entry): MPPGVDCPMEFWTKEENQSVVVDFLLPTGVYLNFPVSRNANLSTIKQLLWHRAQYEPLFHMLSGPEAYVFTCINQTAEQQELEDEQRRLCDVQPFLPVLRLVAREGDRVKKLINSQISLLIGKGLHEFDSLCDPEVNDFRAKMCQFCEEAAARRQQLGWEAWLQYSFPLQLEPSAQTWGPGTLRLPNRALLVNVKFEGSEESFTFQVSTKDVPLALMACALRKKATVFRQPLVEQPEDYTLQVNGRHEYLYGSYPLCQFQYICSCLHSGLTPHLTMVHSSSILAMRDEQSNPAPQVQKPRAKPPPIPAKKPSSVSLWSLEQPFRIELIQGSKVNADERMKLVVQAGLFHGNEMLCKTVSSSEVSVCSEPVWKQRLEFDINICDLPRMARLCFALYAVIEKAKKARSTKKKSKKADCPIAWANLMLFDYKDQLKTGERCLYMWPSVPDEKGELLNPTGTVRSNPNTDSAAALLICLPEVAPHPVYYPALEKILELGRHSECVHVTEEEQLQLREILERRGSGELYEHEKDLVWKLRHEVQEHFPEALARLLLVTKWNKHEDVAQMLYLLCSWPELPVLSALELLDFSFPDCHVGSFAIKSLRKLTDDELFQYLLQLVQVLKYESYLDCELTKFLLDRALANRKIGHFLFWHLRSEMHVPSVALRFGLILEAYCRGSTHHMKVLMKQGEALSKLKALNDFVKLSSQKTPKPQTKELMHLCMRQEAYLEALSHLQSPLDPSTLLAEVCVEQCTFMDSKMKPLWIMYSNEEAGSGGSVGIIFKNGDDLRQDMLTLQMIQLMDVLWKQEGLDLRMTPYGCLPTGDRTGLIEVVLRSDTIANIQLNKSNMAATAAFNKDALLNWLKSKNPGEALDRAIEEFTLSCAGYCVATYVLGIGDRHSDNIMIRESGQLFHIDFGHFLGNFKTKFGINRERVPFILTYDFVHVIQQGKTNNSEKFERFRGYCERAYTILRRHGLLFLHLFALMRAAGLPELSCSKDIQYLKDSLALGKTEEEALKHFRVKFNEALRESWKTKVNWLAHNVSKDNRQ

| IC50 [nM] | SMILES |
| --- | --- |
| > 1000 | Cc1ccc([N+](=O)[O-])cc1S(=O)(=O)N1CCC(c2cnn3ccc(Br)cc23)C1 (stereo not given) |
| 3350 | Cc1ccc([N+](=O)[O-])cc1S(=O)(=O)C/C=C/c1cnn2ccc(Br)cc12 |
| > 1000 | Cc1ccc([N+](=O)[O-])cc1C(=O)N[C@H]1CCCN(Cc2cnn3ccc(C#N)cc23)C1 |
| > 1000 | Cc1ccc([N+](=O)[O-])cc1S(=O)(=O)N1CCC(c2cnn3ccc(Br)cc23)CC1 |
| > 1000 | Cc1ccc([N+](=O)[O-])cc1CS(=O)(=O)c1nc(-c2cnn3ccc(Br)cc23)cs1 |
| > 1000 | Cc1ccc([N+](=O)[O-])cc1S(=O)(=O)N[C@H]1CCN(Cc2cnn3ccc(C#N)cc23)C1 |
| 2000 | CN(C)CCN(C)c1ccc(C#N)cc1S(=O)(=O)c1nc(-c2cnn3ccc(Br)cc23)cs1 |
| > 1000 | Cc1ccc([N+](=O)[O-])cc1C(=O)N[C@@H]1CCN(Cc2cnn3ccc(C#N)cc23)C1 |
| 200 | N#Cc1ccc(F)c([S+]([O-])c2nc(-c3cnn4ccc(Br)cc34)cs2)c1 (stereo not given) |
| > 1000 | Cc1ccc([N+](=O)[O-])cc1C(=O)NC1CCN(Cc2cnn3ccc(C#N)cc23)CC1 |
| > 1000 | Cc1ccc([N+](=O)[O-])cc1S(=O)(=O)/N=c1/scc(-c2cnn3ccc(Br)cc23)n1C |
| 440 | N#Cc1ccc(F)c(S(=O)(=O)c2nc(-c3cnn4ccc(Br)cc34)cs2)c1 |
| > 1000 | Cc1ccc([N+](=O)[O-])cc1S(=O)(=O)N1CCN(Cc2cnn3ccc(C#N)cc23)CC1 |
| > 1000 | Cc1ccc([N+](=O)[O-])cc1C(=O)N[C@@H]1CCCN(Cc2cnn3ccc(C#N)cc23)C1 |
| 1550 | Cc1ccc([N+](=O)[O-])cc1S(=O)(=O)N(C)c1nc(-c2cnn3ccc(Br)cc23)cs1 |
| > 1000 | Cc1ccc([N+](=O)[O-])cc1S(=O)(=O)N[C@@H]1CCN(Cc2cnn3ccc(C#N)cc23)C1 |
| > 1000 | Cc1ccc([N+](=O)[O-])cc1Cc1nc(-c2cnn3ccc(Br)cc23)cs1 |
| > 1000 | Cc1ccc([N+](=O)[O-])cc1S(=O)(=O)N1CCCC(c2cnn3ccc(Br)cc23)C1 (stereo not given) |
| > 1000 | Cc1ccc([N+](=O)[O-])cc1S(=O)(=O)NC1CCN(Cc2cnn3ccc(C#N)cc23)CC1 |
| > 1000 | Cc1ccc([N+](=O)[O-])cc1S(=O)(=O)N[C@H]1CCCN(Cc2cnn3ccc(C#N)cc23)C1 |

What follows are compounds tested against Phosphatidylinositol 4,5-bisphosphate 3-kinase catalytic subunit beta isoform (Homo sapiens, UniProt P42338) (assay: Inhibition of PI3Kbeta (unknown origin)).
Chain of Phosphatidylinositol 4,5-bisphosphate 3-kinase catalytic subunit beta isoform (P42338 whole entry, canonical isoform): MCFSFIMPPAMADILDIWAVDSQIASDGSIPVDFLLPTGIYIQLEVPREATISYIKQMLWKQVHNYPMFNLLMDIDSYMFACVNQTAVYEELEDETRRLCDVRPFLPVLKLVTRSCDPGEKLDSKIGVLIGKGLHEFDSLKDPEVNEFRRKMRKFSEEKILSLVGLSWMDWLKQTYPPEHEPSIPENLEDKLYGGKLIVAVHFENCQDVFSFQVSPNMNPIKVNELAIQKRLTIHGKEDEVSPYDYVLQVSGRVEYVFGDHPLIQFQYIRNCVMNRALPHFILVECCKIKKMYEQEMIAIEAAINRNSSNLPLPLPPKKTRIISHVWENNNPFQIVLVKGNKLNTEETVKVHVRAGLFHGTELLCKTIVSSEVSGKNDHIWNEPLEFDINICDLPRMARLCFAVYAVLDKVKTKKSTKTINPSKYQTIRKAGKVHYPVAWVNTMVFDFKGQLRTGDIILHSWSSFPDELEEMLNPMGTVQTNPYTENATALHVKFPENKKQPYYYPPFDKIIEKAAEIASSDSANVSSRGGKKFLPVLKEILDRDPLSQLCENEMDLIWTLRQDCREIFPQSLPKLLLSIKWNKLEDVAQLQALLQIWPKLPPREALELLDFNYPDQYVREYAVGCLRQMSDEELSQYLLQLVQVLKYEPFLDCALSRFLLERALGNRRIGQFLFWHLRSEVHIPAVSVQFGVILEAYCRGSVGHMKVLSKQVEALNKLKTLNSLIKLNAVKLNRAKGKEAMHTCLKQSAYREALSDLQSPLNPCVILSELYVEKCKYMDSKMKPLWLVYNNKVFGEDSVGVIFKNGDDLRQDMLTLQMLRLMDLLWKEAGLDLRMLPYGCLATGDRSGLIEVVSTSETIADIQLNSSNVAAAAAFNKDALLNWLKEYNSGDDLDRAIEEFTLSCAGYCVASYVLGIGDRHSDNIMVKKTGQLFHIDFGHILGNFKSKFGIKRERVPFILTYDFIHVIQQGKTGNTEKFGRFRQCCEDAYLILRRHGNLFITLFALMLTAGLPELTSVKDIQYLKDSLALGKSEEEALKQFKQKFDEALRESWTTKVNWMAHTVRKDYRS

| IC50 [nM] | SMILES |
| --- | --- |
| > 1000 | Cc1ccc([N+](=O)[O-])cc1S(=O)(=O)N1CCC(c2cnn3ccc(Br)cc23)C1 (stereo not given) |
| > 1000 | Cc1ccc([N+](=O)[O-])cc1S(=O)(=O)C/C=C/c1cnn2ccc(Br)cc12 |
| > 1000 | Cc1ccc([N+](=O)[O-])cc1C(=O)N[C@H]1CCCN(Cc2cnn3ccc(C#N)cc23)C1 |
| > 1000 | Cc1ccc([N+](=O)[O-])cc1S(=O)(=O)N1CCC(c2cnn3ccc(Br)cc23)CC1 |
| > 1000 | Cc1ccc([N+](=O)[O-])cc1CS(=O)(=O)c1nc(-c2cnn3ccc(Br)cc23)cs1 |
| > 1000 | Cc1ccc([N+](=O)[O-])cc1S(=O)(=O)N[C@H]1CCN(Cc2cnn3ccc(C#N)cc23)C1 |
| 3560 | CN(C)CCN(C)c1ccc(C#N)cc1S(=O)(=O)c1nc(-c2cnn3ccc(Br)cc23)cs1 |
| > 1000 | Cc1ccc([N+](=O)[O-])cc1C(=O)N[C@@H]1CCN(Cc2cnn3ccc(C#N)cc23)C1 |
| > 1000 | N#Cc1ccc(F)c([S+]([O-])c2nc(-c3cnn4ccc(Br)cc34)cs2)c1 (stereo not given) |
| > 1000 | Cc1ccc([N+](=O)[O-])cc1C(=O)NC1CCN(Cc2cnn3ccc(C#N)cc23)CC1 |
| > 1000 | Cc1ccc([N+](=O)[O-])cc1S(=O)(=O)/N=c1/scc(-c2cnn3ccc(Br)cc23)n1C |
| > 1000 | N#Cc1ccc(F)c(S(=O)(=O)c2nc(-c3cnn4ccc(Br)cc34)cs2)c1 |
| > 1000 | Cc1ccc([N+](=O)[O-])cc1S(=O)(=O)N1CCN(Cc2cnn3ccc(C#N)cc23)CC1 |
| > 1000 | Cc1ccc([N+](=O)[O-])cc1C(=O)N[C@@H]1CCCN(Cc2cnn3ccc(C#N)cc23)C1 |
| > 1000 | Cc1ccc([N+](=O)[O-])cc1S(=O)(=O)N(C)c1nc(-c2cnn3ccc(Br)cc23)cs1 |
| > 1000 | Cc1ccc([N+](=O)[O-])cc1S(=O)(=O)N[C@@H]1CCN(Cc2cnn3ccc(C#N)cc23)C1 |
| > 1000 | Cc1ccc([N+](=O)[O-])cc1Cc1nc(-c2cnn3ccc(Br)cc23)cs1 |
| > 1000 | Cc1ccc([N+](=O)[O-])cc1S(=O)(=O)N1CCCC(c2cnn3ccc(Br)cc23)C1 (stereo not given) |
| > 1000 | Cc1ccc([N+](=O)[O-])cc1S(=O)(=O)NC1CCN(Cc2cnn3ccc(C#N)cc23)CC1 |
| > 1000 | Cc1ccc([N+](=O)[O-])cc1S(=O)(=O)N[C@H]1CCCN(Cc2cnn3ccc(C#N)cc23)C1 |

What follows are compounds tested against Phosphatidylinositol 4,5-bisphosphate 3-kinase catalytic subunit alpha isoform (Homo sapiens, UniProt P42336) (assay: Inhibition of PI3Kalpha (unknown origin)).
Chain of Phosphatidylinositol 4,5-bisphosphate 3-kinase catalytic subunit alpha isoform (P42336 whole entry, canonical isoform): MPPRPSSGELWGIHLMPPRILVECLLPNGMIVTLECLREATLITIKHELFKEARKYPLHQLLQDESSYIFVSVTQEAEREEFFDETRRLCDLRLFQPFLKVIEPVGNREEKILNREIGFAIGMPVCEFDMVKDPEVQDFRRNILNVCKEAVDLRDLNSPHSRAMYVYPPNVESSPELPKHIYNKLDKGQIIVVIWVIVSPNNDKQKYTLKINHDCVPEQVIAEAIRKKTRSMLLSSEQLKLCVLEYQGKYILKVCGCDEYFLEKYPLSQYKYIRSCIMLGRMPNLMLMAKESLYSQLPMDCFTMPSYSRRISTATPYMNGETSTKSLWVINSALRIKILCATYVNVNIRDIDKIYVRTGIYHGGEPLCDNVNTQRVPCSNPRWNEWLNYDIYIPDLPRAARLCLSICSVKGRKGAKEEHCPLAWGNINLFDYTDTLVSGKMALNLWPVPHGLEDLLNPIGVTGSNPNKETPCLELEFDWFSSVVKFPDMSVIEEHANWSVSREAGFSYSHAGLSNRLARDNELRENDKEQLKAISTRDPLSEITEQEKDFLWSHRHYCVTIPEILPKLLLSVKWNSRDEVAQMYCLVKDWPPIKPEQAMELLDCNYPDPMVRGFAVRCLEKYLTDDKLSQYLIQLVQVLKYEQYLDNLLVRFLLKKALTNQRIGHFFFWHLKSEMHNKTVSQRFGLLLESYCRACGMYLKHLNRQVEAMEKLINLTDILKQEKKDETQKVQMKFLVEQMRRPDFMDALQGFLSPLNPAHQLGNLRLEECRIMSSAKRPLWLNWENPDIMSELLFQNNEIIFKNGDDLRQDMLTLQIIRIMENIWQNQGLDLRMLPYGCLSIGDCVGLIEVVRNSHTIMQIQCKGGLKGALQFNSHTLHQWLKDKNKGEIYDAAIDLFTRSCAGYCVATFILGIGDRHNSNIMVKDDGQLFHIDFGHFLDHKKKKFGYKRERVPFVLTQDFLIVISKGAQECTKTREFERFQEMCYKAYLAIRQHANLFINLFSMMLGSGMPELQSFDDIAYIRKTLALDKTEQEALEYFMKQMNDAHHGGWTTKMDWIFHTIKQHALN

| IC50 [nM] | SMILES |
| --- | --- |
| 3000 | Cc1ccc([N+](=O)[O-])cc1S(=O)(=O)N1CCC(c2cnn3ccc(Br)cc23)C1 (stereo not given) |
| 140 | Cc1ccc([N+](=O)[O-])cc1S(=O)(=O)C/C=C/c1cnn2ccc(Br)cc12 |
| > 1000 | Cc1ccc([N+](=O)[O-])cc1C(=O)N[C@H]1CCCN(Cc2cnn3ccc(C#N)cc23)C1 |
| > 1000 | Cc1ccc([N+](=O)[O-])cc1S(=O)(=O)N1CCC(c2cnn3ccc(Br)cc23)CC1 |
| > 1000 | Cc1ccc([N+](=O)[O-])cc1CS(=O)(=O)c1nc(-c2cnn3ccc(Br)cc23)cs1 |
| > 1000 | Cc1ccc([N+](=O)[O-])cc1S(=O)(=O)N[C@H]1CCN(Cc2cnn3ccc(C#N)cc23)C1 |
| 370 | CN(C)CCN(C)c1ccc(C#N)cc1S(=O)(=O)c1nc(-c2cnn3ccc(Br)cc23)cs1 |
| > 1000 | Cc1ccc([N+](=O)[O-])cc1C(=O)N[C@@H]1CCN(Cc2cnn3ccc(C#N)cc23)C1 |
| 300 | N#Cc1ccc(F)c([S+]([O-])c2nc(-c3cnn4ccc(Br)cc34)cs2)c1 (stereo not given) |
| > 1000 | Cc1ccc([N+](=O)[O-])cc1C(=O)NC1CCN(Cc2cnn3ccc(C#N)cc23)CC1 |
| > 1000 | Cc1ccc([N+](=O)[O-])cc1S(=O)(=O)/N=c1/scc(-c2cnn3ccc(Br)cc23)n1C |
| 720 | N#Cc1ccc(F)c(S(=O)(=O)c2nc(-c3cnn4ccc(Br)cc34)cs2)c1 |
| > 1000 | Cc1ccc([N+](=O)[O-])cc1S(=O)(=O)N1CCN(Cc2cnn3ccc(C#N)cc23)CC1 |
| > 1000 | Cc1ccc([N+](=O)[O-])cc1C(=O)N[C@@H]1CCCN(Cc2cnn3ccc(C#N)cc23)C1 |
| > 1000 | Cc1ccc([N+](=O)[O-])cc1S(=O)(=O)N(C)c1nc(-c2cnn3ccc(Br)cc23)cs1 |
| > 1000 | Cc1ccc([N+](=O)[O-])cc1S(=O)(=O)N[C@@H]1CCN(Cc2cnn3ccc(C#N)cc23)C1 |
| > 1000 | Cc1ccc([N+](=O)[O-])cc1Cc1nc(-c2cnn3ccc(Br)cc23)cs1 |
| 590 | Cc1ccc([N+](=O)[O-])cc1S(=O)(=O)N1CCCC(c2cnn3ccc(Br)cc23)C1 (stereo not given) |
| > 1000 | Cc1ccc([N+](=O)[O-])cc1S(=O)(=O)NC1CCN(Cc2cnn3ccc(C#N)cc23)CC1 |
| > 1000 | Cc1ccc([N+](=O)[O-])cc1S(=O)(=O)N[C@H]1CCCN(Cc2cnn3ccc(C#N)cc23)C1 |

Source: ChEMBL document CHEMBL3132856, “Novel pyrazolo[1,5-a]pyridines as PI3K inhibitors: variation of the central linker group” (Medchemcomm, 2014)
